According to ChEMBL document CHEMBL3879908, “Pyrrolidinone carboxamide derivatives” (2014):

Target: T1, Chemerin-like receptor 1 (Homo sapiens, UniProt Q99788)
T1 sequence (Q99788 whole entry): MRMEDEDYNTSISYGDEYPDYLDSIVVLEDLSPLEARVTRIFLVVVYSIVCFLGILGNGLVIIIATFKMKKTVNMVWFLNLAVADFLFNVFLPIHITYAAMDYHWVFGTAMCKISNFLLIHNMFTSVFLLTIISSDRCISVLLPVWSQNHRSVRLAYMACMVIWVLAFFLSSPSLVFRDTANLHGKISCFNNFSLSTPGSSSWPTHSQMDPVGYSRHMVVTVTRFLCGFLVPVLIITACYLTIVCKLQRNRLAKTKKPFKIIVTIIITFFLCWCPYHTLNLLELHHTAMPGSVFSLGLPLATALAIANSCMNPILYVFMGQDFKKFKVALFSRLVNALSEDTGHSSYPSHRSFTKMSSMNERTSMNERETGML
Experiment: Displacement of [125I]-chemerin from ChemR23 (unknown origin) transfected in mouse BaF3 cells after 3 hrs by scintillation counting method
Type: cell-based

| Structure (SMILES) | IC50 |
| --- | --- |
| Cc1cccc(C)c1N1CC(C(=O)Nc2cc(C(F)(F)F)cc(C(F)(F)F)c2)(C2=CCNCC2)CC1=O (stereo unspecified) | 300 to 6000 nM |
| CC[C@@]1(C(=O)Nc2cc(OC(C)C)cc(C(F)(F)F)c2)CN(c2c(C)cccc2C)C(=O)[C@H]1C | ≤ 30 nM |
| Cc1cccc(C)c1N1CC(C(=O)Nc2cc(C(F)(F)F)cc(C(F)(F)F)c2)(C2=CCSCC2)CC1=O (stereo unspecified) | ≤ 30 nM |
| Cc1ccccc1N1CC(C(=O)Nc2cc(C3CC3)cc(C(F)(F)F)c2)(C(C)C)CC1=O (stereo unspecified) | 30 to 300 nM |
| Cc1cccc(C)c1N1CC(C(=O)Nc2cc(C(F)(F)F)cc(C(F)(F)F)c2)(C2CCN(C)CC2)CC1=O (stereo unspecified) | 300 to 6000 nM |
| Cc1cccc(C)c1N1CC(Cc2ncc[nH]2)(C(=O)Nc2cc(C(F)(F)F)cc(C(F)(F)F)c2)CC1=O (stereo unspecified) | 30 to 300 nM |
| Cc1cccc(C)c1N1C[C@](C(=O)Nc2cc(C(F)(F)F)cc(C(F)(F)F)c2)(C2CCOCC2)[C@@H](C)C1=O | 30 to 300 nM |
| Cc1cccc(Br)c1N1CC(C(=O)Nc2cc(C(F)(F)F)cc(C(F)(F)F)c2)(C(C)C)CC1=O (stereo unspecified) | ≤ 30 nM |
| Cc1cccc(C)c1N1CC(C(=O)Nc2cc(C(F)(F)F)cc(C(F)(F)F)c2)(C2CCC2)CC1=O (stereo unspecified) | ≤ 30 nM |
| Cc1cccc(CN2CCOCC2)c1N1CC(C(=O)Nc2cc(C(F)(F)F)cc(C(F)(F)F)c2)(C(C)C)CC1=O (stereo unspecified) | 30 to 300 nM |
| CC[C@@]1(C(=O)Nc2cc(C(F)(F)F)cc(C(F)(F)F)c2)CC(=O)N(c2c(C)cccc2C)C1 | 30 to 300 nM |
| Cc1cccc(C)c1N1CC(C(=O)Nc2cc(Br)cc(C(F)(F)F)c2)(C(C)C)CC1=O (stereo unspecified) | ≤ 30 nM |
| CC[C@]1(C(=O)Nc2cc(C(F)(F)F)cc(C(F)(F)F)c2)CC(=O)N(c2c(C)cccc2C)C1 | ≤ 30 nM |
| CC(C)C1(C(=O)Nc2cc(C(F)(F)F)cc(C(F)(F)F)c2)CC(=O)N(c2ccccc2Cl)C1 (stereo unspecified) | 30 to 300 nM |
| Cc1cccc(C)c1N1CC(C(=O)Nc2cc(C(F)(F)F)cc(C(F)(F)F)c2)(C2CCSCC2)CC1=O (stereo unspecified) | ≤ 30 nM |
| CC(C)C1(C(=O)Nc2cc(C(F)(F)F)cc(C(F)(F)F)c2)CC(=O)N(c2ccccc2CO)C1 (stereo unspecified) | 300 to 6000 nM |
| COCc1cccc(C)c1N1C[C@](C(=O)Nc2cc(C(F)(F)F)cc(C(F)(F)F)c2)(C(C)C)CC1=O | 30 to 300 nM |
| Cc1cccc(C)c1N1CC(C(=O)Nc2cc(C(F)(F)F)cc(C(F)(F)F)c2)(C2=CCS(=O)(=O)CC2)CC1=O (stereo unspecified) | 30 to 300 nM |
| Cc1cccc(C)c1N1C[C@](C)(C(=O)Nc2cc(C(F)(F)F)cc(C(F)(F)F)c2)[C@H](C)C1=O | 30 to 300 nM |
| CCCCC1(C(=O)Nc2cc(C(F)(F)F)cc(C(F)(F)F)c2)CC(=O)N(c2c(C)cccc2C)C1 (stereo unspecified) | ≤ 30 nM |
| Cc1cccc(C)c1N1CC(C(=O)Nc2cc(C(F)(F)F)cc(C(F)(F)F)c2)(C2=CCN(C)CC2)CC1=O (stereo unspecified) | 30 to 300 nM |
| CC[C@@]1(C(=O)Nc2cc(OC3CCCC3)cc(C(F)(F)F)c2)CN(c2c(C)cccc2C)C(=O)[C@H]1C | ≤ 30 nM |
| CC[C@@H]1C(=O)N(c2c(C)cccc2C)C[C@]1(C)C(=O)Nc1cc(C(F)(F)F)cc(C(F)(F)F)c1 | 300 to 6000 nM |
| C=Cc1ccccc1N1CC(C(=O)Nc2cc(C(F)(F)F)cc(C(F)(F)F)c2)(C(C)C)CC1=O (stereo unspecified) | 30 to 300 nM |
| Cc1cccc(C)c1N1CC(CN(C)C)(C(=O)Nc2cc(C(F)(F)F)cc(C(F)(F)F)c2)CC1=O (stereo unspecified) | 30 to 300 nM |

| Structure (SMILES) | IC50 |
| --- | --- |
| CCCC[C@@]1(C(=O)Nc2cc(C(F)(F)F)cc(C(F)(F)F)c2)CN(c2c(C)cccc2C)C(=O)[C@H]1C | ≤ 30 nM |
| C=CCC1C(=O)N(c2c(C)cccc2C)CC1(CC=C)C(=O)Nc1cc(C(F)(F)F)cc(C(F)(F)F)c1 (stereo unspecified) | ≤ 30 nM |
| Cc1cccc(C)c1N1C[C@@](CN(C)C)(C(=O)Nc2cc(C(F)(F)F)cc(C(F)(F)F)c2)[C@H](C)C1=O | ≤ 30 nM |
| CC[C@@H]1C(=O)N(c2c(C)cccc2C)C[C@@]1(C)C(=O)Nc1cc(C(F)(F)F)cc(C(F)(F)F)c1 | ≤ 30 nM |
| CC[C@@]1(C(=O)Nc2cc(C3CC3)cc(C(F)(F)F)c2)CN(c2c(C)cccc2C)C(=O)[C@H]1C | ≤ 30 nM |
| Cc1cccc(C)c1N1CC(CCC(C)C)(C(=O)Nc2cc(C(F)(F)F)cc(C(F)(F)F)c2)CC1=O (stereo unspecified) | ≤ 30 nM |
| CC[C@@H]1C(=O)N(c2c(C)cccc2C)C[C@@]1(CC)C(=O)Nc1cc(C(F)(F)F)cc(C(F)(F)F)c1 | ≤ 30 nM |
| CC(C)C1(C(=O)Nc2cc(C3CC3)cc(C(F)(F)F)c2)CC(=O)N(c2ccccc2Cl)C1 (stereo unspecified) | 30 to 300 nM |
| C/C=C/c1ccccc1N1CC(C(=O)Nc2cc(C(F)(F)F)cc(C(F)(F)F)c2)(C(C)C)CC1=O (stereo unspecified) | 30 to 300 nM |
| Cc1cccc(C)c1N1C[C@](C(=O)Nc2cc(NC(C)C)cc(C(F)(F)F)c2)(C(C)C)[C@H](C)C1=O | 30 to 300 nM |
| CC[C@]1(C(=O)Nc2cc(Cl)cc(C(F)(F)F)c2)CC(=O)N(c2c(C)cccc2C)C1 | 30 to 300 nM |
| Cc1cccc(C)c1N1CC(COCc2ccccc2)(C(=O)Nc2cc(C(F)(F)F)cc(C(F)(F)F)c2)CC1=O (stereo unspecified) | ≤ 30 nM |
| Cc1cc(C)n(C2(C(=O)Nc3cc(C(F)(F)F)cc(C(F)(F)F)c3)CC(=O)N(c3c(C)cccc3C)C2)n1 (stereo unspecified) | ≤ 30 nM |
| Cc1cccc(C)c1N1C[C@@](CC(C)C)(C(=O)Nc2cc(C(F)(F)F)cc(C(F)(F)F)c2)[C@H](C)C1=O | ≤ 30 nM |
| CC[C@@]1(C(=O)Nc2cc(F)cc(C(F)(F)F)c2)CN(c2c(C)cccc2C)C(=O)[C@H]1C | 30 to 300 nM |
| Cc1cccc(C)c1N1CC(C(=O)Nc2cc(C(F)(F)F)cc(C(F)(F)F)c2)(C2CCCC2)CC1=O (stereo unspecified) | ≤ 30 nM |
| CC[C@@]1(C(=O)Nc2cc(C(F)(F)F)cc(C(F)(F)F)c2)CN(c2c(C)cccc2C)C(=O)[C@@H]1C | 30 to 300 nM |
| CC[C@@]1(C(=O)Nc2cc(C#N)cc(C(F)(F)F)c2)CN(c2c(C)cccc2C)C(=O)[C@H]1C | ≤ 30 nM |
| CCC(C)(C)C1(C(=O)Nc2cc(C(F)(F)F)cc(C(F)(F)F)c2)CC(=O)N(c2c(C)cccc2C)C1 (stereo unspecified) | 30 to 300 nM |
| CCC1(C(=O)Nc2cccc(C(F)(F)F)c2)CC(=O)N(c2c(C)cccc2C)C1 (stereo unspecified) | 300 to 6000 nM |
| Cc1cccc(C)c1N1C[C@](C(=O)Nc2cc(C#N)cc(C(F)(F)F)c2)(C(C)C)CC1=O | ≤ 30 nM |
| CC[C@@]1(C(=O)Nc2cc(C)cc(C(F)(F)F)c2)CN(c2c(C)cccc2C)C(=O)[C@H]1C | ≤ 30 nM |
| CC[C@@]1(C(=O)Nc2cc(CN3CCCC3C(F)(F)F)cc(C(F)(F)F)c2)CN(c2c(C)cccc2C)C(=O)[C@H]1C (stereo partly specified) | ≤ 30 nM |
| Cc1cccc(C)c1N1C[C@](C(=O)Nc2cc(OC(C)C)cc(C(F)(F)F)c2)(C(C)C)CC1=O | ≤ 30 nM |
| Cc1cccc(C)c1N1C[C@](C(=O)Nc2cc(C(F)(F)F)cc(C(F)(F)F)c2)(C(C)C)[C@H](C)C1=O | 30 to 300 nM |

Next, values leading:

| IC50 | Structure (SMILES) |
| --- | --- |
| ≤ 30 nM | C=C(C)CC1(C(=O)Nc2cc(C(F)(F)F)cc(C(F)(F)F)c2)CC(=O)N(c2c(C)cccc2C)C1 (stereo unspecified) |
| 30 to 300 nM | CC[C@@]1(C(=O)Nc2cc(N3CCCC3)cc(C(F)(F)F)c2)CN(c2c(C)cccc2C)C(=O)[C@H]1C |
| ≤ 30 nM | CC[C@@]1(C(=O)Nc2cc(OC3CCC3)cc(C(F)(F)F)c2)CN(c2c(C)cccc2C)C(=O)[C@H]1C |
| 30 to 300 nM | CC[C@@]1(C(=O)Nc2cc(N(C)C)cc(C(F)(F)F)c2)CN(c2c(C)cccc2C)C(=O)[C@H]1C |
| 300 to 6000 nM | CCC1(C(=O)Nc2cc(C(F)(F)F)cc(C(F)(F)F)c2)CC(=O)N(c2ccccc2OC)C1 (stereo unspecified) |
| 300 to 6000 nM | CC(C)C1(C(=O)Nc2cc(C(F)(F)F)cc(C(F)(F)F)c2)CC(=O)N(c2ccccc2CN2CCOCC2)C1 (stereo unspecified) |
| 30 to 300 nM | CC[C@@]1(C(=O)Nc2cc(OC)cc(C(F)(F)F)c2)CN(c2c(C)cccc2C)C(=O)[C@H]1C |
| 30 to 300 nM | CC[C@@]1(C(=O)Nc2cc(C(F)(F)F)cc(C(F)(F)F)c2)CN(c2c(C)cccc2C)C(=O)[C@H]1C |
| 30 to 300 nM | CCOc1cc(NC(=O)[C@]2(CC)CN(c3c(C)cccc3C)C(=O)[C@H]2C)cc(C(F)(F)F)c1 |
| ≤ 30 nM | CCC[C@@]1(C(=O)Nc2cc(C(F)(F)F)cc(C(F)(F)F)c2)CN(c2c(C)cccc2C)C(=O)[C@H]1C |
| 300 to 6000 nM | COc1ccccc1N1CC(C(=O)Nc2cc(C3CC3)cc(C(F)(F)F)c2)(C(C)C)CC1=O (stereo unspecified) |
| 30 to 300 nM | Cc1cccc(C)c1N1CC(C(=O)Nc2cc(C(F)(F)F)cc(C(F)(F)F)c2)(C(C)O)CC1=O (stereo unspecified) |
| 300 to 6000 nM | CC[C@@]1(C(=O)Nc2cc(CN3CCCC3)cc(C(F)(F)F)c2)CN(c2c(C)cccc2C)C(=O)[C@H]1C |
| 30 to 300 nM | CC(C)C1(C(=O)Nc2cc(C(F)(F)F)cc(C(F)(F)F)c2)CC(=O)N(c2ccccc2C2CC2)C1 (stereo unspecified) |
| ≤ 30 nM | Cc1cccc(C)c1N1CC(C(=O)Nc2cc(C(F)(F)F)cc(C(F)(F)F)c2)(C2CCN(C(=O)OC(C)(C)C)CC2)CC1=O (stereo unspecified) |
| ≤ 30 nM | Cc1cccc(C)c1N1C[C@@](C)(C(=O)Nc2cc(C(F)(F)F)cc(C(F)(F)F)c2)[C@H](C)C1=O |
| ≤ 30 nM | CC[C@@]1(C(=O)Nc2cc(Cl)cc(C(F)(F)F)c2)CN(c2c(C)cccc2C)C(=O)[C@H]1C |
| ≤ 30 nM | Cc1cccc(C)c1N1C[C@](C(=O)Nc2cc(C3CC3)cc(C(F)(F)F)c2)(C(C)C)CC1=O |
| ≤ 30 nM | CC[C@@]1(C(=O)Nc2cc(C(F)(F)F)cc(C(F)(F)F)c2)CN(c2c(C)cccc2C)C(=O)[C@H]1OC |
| ≤ 30 nM | Cc1cccc(C)c1N1CC(C(=O)Nc2cc(C(F)(F)F)cc(C(F)(F)F)c2)(C2CCCCC2)CC1=O (stereo unspecified) |
| 30 to 300 nM | Cc1cccc(C)c1N1CC(CCCO)(C(=O)Nc2cc(C(F)(F)F)cc(C(F)(F)F)c2)CC1=O (stereo unspecified) |
| 300 to 6000 nM | Cc1cccc(C)c1N1CC(C(=O)Nc2cc(C(F)(F)F)cc(C(F)(F)F)c2)(C(C)N2CCCC2)CC1=O (stereo unspecified) |
| ≤ 30 nM | Cc1cccc(C)c1N1C[C@](C(=O)Nc2cc(C(F)(F)F)cc(C(F)(F)F)c2)(C2CCOCC2)[C@H](C)C1=O |
| ≤ 30 nM | Cc1cccc(C)c1N1CC(CC2CCN(Cc3ccccc3)C2)(C(=O)Nc2cc(C(F)(F)F)cc(C(F)(F)F)c2)CC1=O (stereo unspecified) |
| ≤ 30 nM | Cc1cccc(C)c1N1C[C@@](C(=O)Nc2cc(C(F)(F)F)cc(C(F)(F)F)c2)(C(C)C)[C@H](C)C1=O |
| ≤ 30 nM | Cc1cccc(C)c1N1CC(C(=O)Nc2cc(C(F)(F)F)cc(C(F)(F)F)c2)(C2CCOCC2)CC1=O (stereo unspecified) |
